From PubChem BioAssay (NCI)
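In this assay, cells in 96-well plates receive the compound at five concentrations for 48 hours. Endpoints are linearly interpolated between the surrounding concentrations. GI50 is the concentration that inhibits growth by half. TGI marks complete inhibition of growth.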

What was measured:
Assay in all cases: inhibition of tumour cell growth, NCI panel, 48 h
CCRF-CEM leukemia = tested on: CCRF-CEM leukemia
T-47D breast = tested on: T-47D breast
OVCAR-8 ovarian = tested on: OVCAR-8 ovarian
RPMI-8226 leukemia = tested on: RPMI-8226 leukemia
EKVX NSCLC = tested on: EKVX NSCLC
SF-268 CNS = tested on: SF-268 CNS
NCI-H226 lung = tested on: NCI-H226 lung
SK-OV-3 ovarian = tested on: SK-OV-3 ovarian
HOP-92 NSCLC = tested on: HOP-92 NSCLC
A549 NSCLC = tested on: A549 NSCLC
SK-MEL-28 melanoma = tested on: SK-MEL-28 melanoma
MOLT-4 leukemia = tested on: MOLT-4 leukemia
RXF 393 renal = tested on: RXF 393 renal
MCF7 breast = tested on: MCF7 breast
NCI-H460 lung = tested on: NCI-H460 lung
KM12 colon = tested on: KM12 colon
A498 renal = tested on: A498 renal
HS 578T breast = tested on: HS 578T breast
OVCAR-3 ovarian = tested on: OVCAR-3 ovarian
HCT-15 colon = tested on: HCT-15 colon
U251 CNS = tested on: U251 CNS
LOX IMVI melanoma = tested on: LOX IMVI melanoma
IGROV1 ovarian = tested on: IGROV1 ovarian
SN12C renal = tested on: SN12C renal
K-562 leukemia = tested on: K-562 leukemia
M14 melanoma = tested on: M14 melanoma
HL-60(TB) leukemia = tested on: HL-60(TB) leukemia
SW-620 colon = tested on: SW-620 colon
UACC-62 melanoma = tested on: UACC-62 melanoma
SNB-75 CNS = tested on: SNB-75 CNS
OVCAR-4 ovarian = tested on: OVCAR-4 ovarian
TK-10 renal = tested on: TK-10 renal
786-0 renal = tested on: 786-0 renal
MDA-MB-435 = tested on: MDA-MB-435
SR leukemia = tested on: SR leukemia
COLO 205 colon = tested on: COLO 205 colon
NCI-H522 lung = tested on: NCI-H522 lung
HCT-116 colon = tested on: HCT-116 colon
SF-539 CNS = tested on: SF-539 CNS
SK-MEL-5 melanoma = tested on: SK-MEL-5 melanoma
MDA-MB-231 breast = tested on: MDA-MB-231 breast
UACC-257 melanoma = tested on: UACC-257 melanoma
UO-31 renal = tested on: UO-31 renal
SK-MEL-2 melanoma = tested on: SK-MEL-2 melanoma
DU-145 prostate = tested on: DU-145 prostate
NCI-H23 lung = tested on: NCI-H23 lung
PC-3 prostate = tested on: PC-3 prostate
ACHN renal = tested on: ACHN renal
NCI/ADR-RES ovarian = tested on: NCI/ADR-RES ovarian
HT29 colon = tested on: HT29 colon
SNB-19 CNS = tested on: SNB-19 CNS
SF-295 CNS = tested on: SF-295 CNS
BT-549 breast = tested on: BT-549 breast
HOP-62 NSCLC = tested on: HOP-62 NSCLC
MALME-3M melanoma = tested on: MALME-3M melanoma
HCC-2998 colon = tested on: HCC-2998 colon
OVCAR-5 ovarian = tested on: OVCAR-5 ovarian

## COc1ccc(C2C(C#N)=C(N)Oc3c2sc2c(F)cccc32)cc1 (centres undefined)
CCRF-CEM leukemia
  GI50: 1700 nM
  TGI: 12.5 µM
T-47D breast
  GI50: 2570 nM
  TGI: 25.9 µM
OVCAR-8 ovarian
  GI50: 3.11 µM
  TGI: 14.5 µM
RPMI-8226 leukemia
  GI50: 2660 nM
  TGI: 12.5 µM
EKVX NSCLC
  GI50: 4.7 µM
  TGI: 22.5 µM
SF-268 CNS
  GI50: 3.95 µM
  TGI: 19.6 µM
NCI-H226 lung
  GI50: 14 µM
  TGI: 32.6 µM
SK-OV-3 ovarian
  GI50: 4.35 µM
  TGI: 36.7 µM
HOP-92 NSCLC
  GI50: 4.32 µM
  TGI: 21.2 µM
A549 NSCLC
  GI50: 3.12 µM
  TGI: 22.3 µM
SK-MEL-28 melanoma
  GI50: 8.25 µM
  TGI: 23.2 µM
MOLT-4 leukemia
  GI50: 2620 nM
  TGI: 14 µM
RXF 393 renal
  GI50: 1810 nM
  TGI: 5.77 µM
MCF7 breast
  GI50: 711 nM
  TGI: 13.6 µM
NCI-H460 lung
  GI50: 2590 nM
  TGI: 11.9 µM
KM12 colon
  GI50: 1620 nM
  TGI: 17.5 µM
A498 renal
  GI50: 2100 nM
  TGI: 15.6 µM
HS 578T breast
  GI50: 2810 nM
  TGI: 27 µM
OVCAR-3 ovarian
  GI50: 1380 nM
  TGI: 4.94 µM
HCT-15 colon
  GI50: 1730 nM
  TGI: 12.4 µM
U251 CNS
  GI50: 2740 nM
  TGI: 11.8 µM
LOX IMVI melanoma
  GI50: 2400 nM
  TGI: 12.4 µM
IGROV1 ovarian
  GI50: 2900 nM
  TGI: 19.5 µM
SN12C renal
  GI50: 3.94 µM
  TGI: 16.5 µM
K-562 leukemia
  GI50: 493 nM
  TGI: 18.2 µM
M14 melanoma
  GI50: 1340 nM
  TGI: 4.54 µM
HL-60(TB) leukemia
  GI50: 1750 nM
  TGI: 6.5 µM
SW-620 colon
  GI50: 1820 nM
  TGI: 15.6 µM
UACC-62 melanoma
  GI50: 2410 nM
  TGI: 18.9 µM
SNB-75 CNS
  GI50: 2420 nM
  TGI: 14.5 µM
OVCAR-4 ovarian
  GI50: 8.95 µM
  TGI: 31 µM
TK-10 renal
  GI50: 5.69 µM
  TGI: 23.5 µM
786-0 renal
  GI50: 3.34 µM
  TGI: 13 µM
MDA-MB-435
  GI50: 315 nM
  TGI: 1400 nM
SR leukemia
  GI50: 706 nM
  TGI: 14.2 µM
COLO 205 colon
  GI50: 2620 nM
  TGI: 8.18 µM
NCI-H522 lung
  GI50: 799 nM
  TGI: 6.35 µM
HCT-116 colon
  GI50: 2700 nM
  TGI: 12.1 µM
SF-539 CNS
  GI50: 2130 nM
  TGI: 6.24 µM
SK-MEL-5 melanoma
  GI50: 3.93 µM
  TGI: 16.3 µM
MDA-MB-231 breast
  GI50: 3.77 µM
  TGI: 20.3 µM
UACC-257 melanoma
  GI50: 14.6 µM
  TGI: 88.8 µM
UO-31 renal
  GI50: 4.66 µM
  TGI: 17.7 µM
SK-MEL-2 melanoma
  GI50: 3 µM
  TGI: 18.6 µM
DU-145 prostate
  GI50: 2960 nM
  TGI: 11.4 µM
NCI-H23 lung
  GI50: 3.6 µM
  TGI: 21.8 µM
PC-3 prostate
  GI50: 2360 nM
  TGI: 11.7 µM
ACHN renal
  GI50: 6.08 µM
  TGI: 21.4 µM
NCI/ADR-RES ovarian
  GI50: 881 nM
  TGI: 5.96 µM
HT29 colon
  GI50: 3.23 µM
  TGI: 11.1 µM
SNB-19 CNS
  GI50: 2990 nM
  TGI: 16.8 µM
SF-295 CNS
  GI50: 2100 nM
  TGI: 11.5 µM
BT-549 breast
  GI50: 4.65 µM
  TGI: 24 µM
HOP-62 NSCLC
  GI50: 1750 nM
  TGI: 15.9 µM
MALME-3M melanoma
  GI50: 11.6 µM
  TGI: 26.3 µM
HCC-2998 colon
  GI50: 3.04 µM
  TGI: 14 µM
OVCAR-5 ovarian
  GI50: 8.53 µM
  TGI: 27.6 µM
